ChEMBL document CHEMBL6071196, “Semisynthetic Tetramate-Containing Fungal Metabolites with Activity against Trichomonas vaginalis and Mycoplasma genitalium” (ACS Med Chem Lett, 2024)
pEC50: −log10 of the molar value. Converted amounts (≈) assume the structure as drawn.

How the values were obtained:
[1] = Selectivity index, ratio of IC50 for cytotoxicity against african green monkey Vero cells incubated for 48 hrs by celltiter blue assay to MIC for antibacterial activity against Mycoplasma genitalium G37C assessed as bacterial growth inhibition incubated for 7 days by phenol red reagent based microbroth dilution assay; type: toxicity, cell-based; settings: read-out: Selectivity Index
Trichomonas vaginalis = experiment: Anti-trichomonal activity against Trichomonas vaginalis assessed as inhibition of parasite growth incubated for 18 hrs; type: functional, organism-based
Mycoplasma genitalium = experiment: Antibacterial activity against Mycoplasma genitalium G37C assessed as bacterial growth inhibition incubated for 7 days by phenol red reagent based microbroth dilution assay; type: functional; settings: Mycoplasmoides genitalium, 168 h, time 7 day
[2] = Selectivity index, ratio of IC50 for cytotoxicity against african green monkey Vero cells incubated for 48 hrs by celltiter blue assay to EC50 for anti-trichomonal activity against Trichomonas vaginalis assessed as inhibition of parasite growth incubated for 18 hrs; type: toxicity, cell-based; settings: read-out: Ratio IC50/EC50

Compound | selectivity ratio at 48 h [1] | pEC50 (Trichomonas vaginalis) | MIC90 (Mycoplasma genitalium) | selectivity ratio at 48 h [2]
C/C=C/C=C/[C@H]1C(C)=C[C@H]2C[C@@H](C)CC[C@@H]2[C@@]1(C)/C(O)=C1\C(=O)[C@@H](COCc2cn(CC3CCCCO3)nn2)N(C)C1=O (stereo partly specified) | 8.1 | < 5.00 | 5.2 µM (≈ 3.08 µg/mL) | –
C/C=C/C=C/[C@H]1C(C)=C[C@H]2C[C@@H](C)CC[C@@H]2[C@@]1(C)/C(O)=C1\C(=O)[C@H](COCc2cn(CC3CCCCO3)nn2)N(C)C1=O (stereo partly specified) | 4.4 | < 5.00 | 5.2 µM (≈ 3.08 µg/mL) | –
C/C=C/C=C/[C@H]1C(C)=C[C@H]2C[C@@H](C)CC[C@@H]2[C@@]1(C)/C(O)=C1\C(=O)[C@H](COCc2cn(Cc3ccc(C(=O)O)cc3)nn2)N(C)C1=O | – | 5.12 | > 25 µM | –
C/C=C/C=C/[C@H]1C(C)=C[C@H]2C[C@@H](C)CC[C@@H]2[C@@]1(C)/C(O)=C1\C(=O)[C@@H](COC)N(C)C1=O | 6.7 | < 5.00 | 3.7 µM (≈ 1.58 µg/mL) | –
C/C=C/C=C/[C@H]1C(C)=C[C@H]2C[C@@H](C)CC[C@@H]2[C@@]1(C)/C(O)=C1/C(=O)N[C@@H](CO)C1=O | – | < 5.00 | 62.6 µM (≈ 25 µg/mL) | –
C/C=C/C=C/[C@H]1C(C)=C[C@H]2C[C@@H](C)CC[C@@H]2[C@@]1(C)/C(O)=C1\C(=O)[C@H](COCc2cn(CCCCC)nn2)N(C)C1=O | – | < 5.00 | 22.1 µM (≈ 12.5 µg/mL) | –
CC1=C[C@H]2C[C@@H](C)CC[C@@H]2[C@@](C)(/C(O)=C2\C(=O)[C@@H](COCc3cn(Cc4ccc(C(=O)O)cc4)nn3)N(C)C2=O)[C@H]1/C=C/C=C/C[C@@H](C)O | – | < 5.00 | 37 µM (≈ 24.9 µg/mL) | –
C/C=C/C=C/[C@H]1C(C)=C[C@H]2C[C@@H](C)CC[C@@H]2[C@@]1(C)/C(O)=C1\C(=O)[C@@H](COCc2cn(CCCCC)nn2)N(C)C1=O | – | < 5.00 | 22.1 µM (≈ 12.5 µg/mL) | –
CC1=C[C@H]2C[C@@H](C)CC[C@@H]2[C@@](C)(/C(O)=C2\C(=O)[C@@H](COCc3cn(CC4CCCCO4)nn3)N(C)C2=O)[C@H]1/C=C/C=C/C[C@@H](C)O (stereo partly specified) | – | < 5.00 | 19.6 µM (≈ 12.5 µg/mL) | –
C/C=C/C=C/[C@H]1C(C)=C[C@H]2C[C@@H](C)CC[C@@H]2[C@@]1(C)/C(O)=C1\C(=O)[C@@H](COCc2cn(CCO)nn2)N(C)C1=O | – | < 5.00 | 23.2 µM (≈ 12.5 µg/mL) | –
C/C=C/C=C/[C@H]1C(C)=C[C@H]2C[C@@H](C)CC[C@@H]2[C@@]1(C)/C(O)=C1\C(=O)[C@@H](COCc2ccccc2)N(C)C1=O | – | < 5.00 | 24.8 µM (≈ 12.5 µg/mL) | –
CC1=C[C@H]2C[C@@H](C)CC[C@@H]2[C@@](C)(/C(O)=C2\C(=O)[C@H](COCc3cn(Cc4ccc(C(=O)O)cc4)nn3)N(C)C2=O)[C@H]1/C=C/C=C/C[C@@H](C)O | – | < 5.00 | > 37 µM | –
C/C=C/[C@@H]1C=C[C@@H]2C[C@H](C)CC[C@H]2[C@]1(C)/C(O)=C1/C(=O)N[C@@H](CO)C1=O | 40 | 5.60 | 2.2 µM (≈ 0.791 µg/mL) | 35.9
CC1=C[C@H]2C[C@@H](C)CC[C@@H]2[C@@](C)(/C(O)=C2\C(=O)[C@H](CO)N(C)C2=O)[C@H]1/C=C/C=C/C[C@@H](C)O | – | < 5.00 | 6.8 µM (≈ 3.11 µg/mL) | –
C/C=C/[C@@H]1C=C[C@@H]2C[C@H](C)CC[C@H]2[C@]1(C)/C(O)=C1\C(=O)[C@@H](CO)N(C)C1=O | 11.5 | < 5.00 | 2.1 µM (≈ 0.784 µg/mL) | –
CC1=C[C@H]2C[C@@H](C)CC[C@@H]2[C@@](C)(/C(O)=C2\C(=O)[C@@H](COCc3cn(CCO)nn3)N(C)C2=O)[C@H]1/C=C/C=C/C[C@@H](C)O | 6.5 | < 5.00 | 10.8 µM (≈ 6.29 µg/mL) | –
C/C=C/C=C/[C@H]1C(C)=C[C@H]2C[C@@H](C)CC[C@@H]2[C@@]1(C)/C(O)=C1\C(=O)[C@H](COCc2cn(CCO)nn2)N(C)C1=O | 9.7 | < 5.00 | 5.8 µM (≈ 3.12 µg/mL) | –
C/C=C/C=C/[C@H]1C(C)=C[C@H]2C[C@@H](C)CC[C@@H]2[C@@]1(C)/C(O)=C1\C(=O)[C@H](COCc2cn(Cc3cc(C)cc(C)c3)nn2)N(C)C1=O | – | < 5.00 | 20.4 µM (≈ 12.5 µg/mL) | –
C/C=C/C=C/[C@H]1C(C)=C[C@H]2C[C@@H](C)CC[C@@H]2[C@@]1(C)/C(O)=C1\C(=O)[C@H](COCc2cn(CC3CCCO3)nn2)N(C)C1=O (stereo partly specified) | – | < 5.00 | 12.5 µM (≈ 7.23 µg/mL) | –
C/C=C/C=C/[C@H]1C(C)=C[C@H]2C[C@@H](C)CC[C@@H]2[C@@]1(C)/C(O)=C1\C(=O)[C@@H](COCc2cn(CCc3ccc(O)cc3)nn2)N(C)C1=O | 6.1 | < 5.00 | 5 µM (≈ 3.07 µg/mL) | –
C/C=C/C=C/[C@H]1C(C)=C[C@H]2C[C@@H](C)CC[C@@H]2[C@@]1(C)/C(O)=C1\C(=O)[C@@H](COCc2cn(Cc3c[nH]c4ccccc34)nn2)N(C)C1=O | 17.9 | < 5.00 | 4.9 µM (≈ 3.06 µg/mL) | –
CC1=C[C@H]2C[C@@H](C)CC[C@@H]2[C@@](C)(/C(O)=C2\C(=O)[C@@H](CO)N(C)C2=O)[C@H]1/C=C/[C@@H](O)[C@@H](C)O | – | < 5.00 | 12.5 µM (≈ 5.59 µg/mL) | –

Compound | selectivity ratio at 48 h [1] | pEC50 (Trichomonas vaginalis) | MIC90 (Mycoplasma genitalium) | selectivity ratio at 48 h [2]
C#CCOC[C@@H]1C(=O)/C(=C(/O)[C@@]2(C)[C@@H](/C=C/C=C/C[C@@H](C)OCC#C)C(C)=C[C@H]3C[C@@H](C)CC[C@@H]32)C(=O)N1C | 14 | < 5.00 | 5.8 µM (≈ 3.1 µg/mL) | –
CC1=C[C@H]2C[C@@H](C)CC[C@@H]2[C@@](C)(/C(O)=C2\C(=O)[C@H](COCc3cn(CC4CCCCO4)nn3)N(C)C2=O)[C@H]1/C=C/C=C/C[C@@H](C)O (stereo partly specified) | – | – | – | 19.6
C#CCOC[C@@H]1C(=O)/C(=C(/O)[C@@]2(C)[C@@H](/C=C/C=C/C)C(C)=C[C@H]3C[C@@H](C)CC[C@@H]32)C(=O)N1C | – | < 5.00 | 14 µM (≈ 6.32 µg/mL) | –
C/C=C/C=C/[C@H]1C(C)=C[C@H]2C[C@@H](C)CC[C@@H]2[C@@]1(C)/C(O)=C1\C(=O)[C@H](CO)N(C)C1=O | – | < 5.00 | 25 µM (≈ 10.3 µg/mL) | –
C/C=C/C=C/[C@H]1C(C)=C[C@H]2C[C@@H](C)CC[C@@H]2[C@@]1(C)C(=O)[C@H]1C(=O)N(C)[C@H](CO)[C@H]1O | 2.8 | < 5.00 | 7.5 µM (≈ 3.12 µg/mL) | –
C/C=C/C=C/[C@H]1C(C)=C[C@H]2C[C@@H](C)CC[C@@H]2[C@@]1(C)/C(O)=C1\C(=O)[C@H](COCc2cn(CC3CCCC3)nn2)N(C)C1=O | 7.9 | < 5.00 | 5.4 µM (≈ 3.11 µg/mL) | –
CC1=C[C@H]2C[C@@H](C)CC[C@@H]2[C@@](C)(/C(O)=C2\C(=O)[C@@H](COCc3cn(CCc4ccc(O)cc4)nn3)N(C)C2=O)[C@H]1/C=C/C=C/C[C@@H](C)O | – | 5.27 | 38.8 µM (≈ 25.6 µg/mL) | –
C/C=C/C=C/[C@H]1C(C)=C[C@H]2C[C@@H](C)CC[C@@H]2[C@@]1(C)/C(O)=C1\C(=O)[C@H](COCc2cn(CCCCO)nn2)N(C)C1=O | – | < 5.00 | 22.1 µM (≈ 12.5 µg/mL) | –
CC1=C[C@H]2C[C@@H](C)CC[C@@H]2[C@@](C)(/C(O)=C2\C(=O)[C@@H](CO)N(C)C2=O)[C@H]1/C=C/[C@H](O)[C@H](C)O | – | < 5.00 | > 50 µM | –
CC1=C[C@H]2C[C@@H](C)CC[C@@H]2[C@@](C)(/C(O)=C2\C(=O)[C@H](COCc3cn(CCO)nn3)N(C)C2=O)[C@H]1/C=C/C=C/C[C@@H](C)O | – | < 5.00 | > 40 µM | –
C/C=C/C=C/[C@H]1C(C)=C[C@H]2C[C@@H](C)CC[C@@H]2[C@@]1(C)/C(O)=C1\C(=O)[C@H](COCc2cn(Cc3c[nH]c4ccccc34)nn2)N(C)C1=O | 2.5 | < 5.00 | 9.9 µM (≈ 6.18 µg/mL) | –
C/C=C/C=C/[C@H]1C(C)=C[C@H]2C[C@@H](C)CC[C@@H]2[C@@]1(C)/C(O)=C1\C(=O)[C@@H](COCc2cn(Cc3cc(C)cc(C)c3)nn2)N(C)C1=O | – | < 5.00 | 20.4 µM (≈ 12.5 µg/mL) | –
C/C=C/C=C/[C@H]1C(C)=C[C@H]2C[C@@H](C)CC[C@@H]2[C@@]1(C)/C(O)=C1\C(=O)[C@@H](COC(C)=O)N(C)C1=O | – | < 5.00 | 12.5 µM (≈ 5.69 µg/mL) | –
C/C=C/C=C/[C@H]1C(C)=C[C@H]2C[C@@H](C)CC[C@@H]2[C@@]1(C)/C(O)=C1\C(=O)[C@@H](COCC=C(C)C)N(C)C1=O | 8.8 | < 5.00 | 6.4 µM (≈ 3.08 µg/mL) | –
C/C=C/C=C/[C@H]1C(C)=C[C@H]2C[C@@H](C)CC[C@@H]2[C@@]1(C)/C(O)=C1\C(=O)[C@@H](COCc2cn(CC3CCCC3)nn2)N(C)C1=O | – | < 5.00 | 10.9 µM (≈ 6.29 µg/mL) | –
C/C=C/C=C/[C@H]1C(C)=C[C@H]2C[C@@H](C)CC[C@@H]2[C@@]1(C)/C(O)=C1\C(=O)[C@@H](COCc2cn(CCCO)nn2)N(C)C1=O | – | < 5.00 | 22.6 µM (≈ 12.5 µg/mL) | –
C/C=C/C=C/[C@H]1C(C)=C[C@H]2C[C@@H](C)CC[C@@H]2[C@@]1(C)/C(O)=C1\C(=O)[C@@H](COCc2cn(CCCCO)nn2)N(C)C1=O | – | < 5.00 | 11.1 µM (≈ 6.29 µg/mL) | –
CC1=C[C@H]2C[C@@H](C)CC[C@@H]2[C@@](C)(/C(O)=C2\C(=O)[C@H](COCc3cn(CCc4ccc(O)cc4)nn3)N(C)C2=O)[C@H]1/C=C/C=C/C[C@@H](C)O | 12.1 | < 5.00 | 9.8 µM (≈ 6.46 µg/mL) | –
C/C=C/C=C/[C@H]1C(C)=C[C@H]2C[C@@H](C)CC[C@@H]2[C@@]1(C)/C(O)=C1\C(=O)[C@@H](COCc2cn(CC3CCCO3)nn2)N(C)C1=O (stereo partly specified) | – | 5.27 | 12.5 µM (≈ 7.23 µg/mL) | –
C/C=C/C=C/[C@H]1C(C)=C[C@H]2C[C@@H](C)CC[C@@H]2[C@@]1(C)[C@@H](O)[C@H]1C(=O)N(C)[C@H](CO)[C@H]1O | – | < 5.00 | 30.1 µM (≈ 12.6 µg/mL) | –
C/C=C/C=C/[C@H]1C(C)=C[C@H]2C[C@@H](C)CC[C@@H]2[C@@]1(C)/C(O)=C1\C(=O)[C@H](COCc2cn(CCCO)nn2)N(C)C1=O | – | < 5.00 | 22.6 µM (≈ 12.5 µg/mL) | –
